Results from US20020192703A1, “Immunoassay reagents and methods for determination of LSD and LSD metabolites” (priority 1995, published 2002).
Counter-ions that a name gives are not always drawn. Like-named read-outs stand apart in the source and are kept apart here.

Legend:
monoclonal antibody 19A7 = type: binding, mice
Procedure: Cross-reactivity was tested by spiking various potential cross-reactants into human urine containing a preservative.

[1] = Dilution analysis of sample containing LSD metabolite, CEDIA; type: binding; details: for LSD ng/ml CEDIA: LSD equivalents
Procedure: (§1) In the following experiment, the results of the CEDIA® are compared with those of the DPC assay, and with those obtained using the Abuscreen® radioimmunoassay by Roche. While the amount of metabolite in the sample is not known in absolute terms, the behavior is tested by dilution analysis. Results are given in terms of LSD equivalents.

[2] = Dilution analysis of sample containing LSD metabolite, DPC RIA; type: binding; details: LSD equivalents
Procedure: as §1

[3] = Dilution analysis of sample containing LSD metabolite, Abuscreen RIA (Roche); type: binding; details: LSD equivalents
Procedure: as §1

[4] = Concentration Added 10,000 ng/ml, 100 × observed dose / concentration added
[5] = Concentration Added 10,000 ng/ml, in human urine
[6] = Concentration Added 500,000 ng/ml, 100 × observed dose / concentration added
[7] = Concentration Added 500,000 ng/ml, in human urine
[8] = Concentration Added 50,000 ng/ml, 100 × observed dose / concentration added
[9] = Concentration Added 50,000 ng/ml, in human urine
[10] = Concentration Added 100,000 ng/ml, 100 × observed dose / concentration added
[11] = Concentration Added 100,000 ng/ml, in human urine
[12] = sample containing the metabolite, essentially free of LSD parent by GC/MS, undiluted

## NCCc1c[nH]c2ccc(O)cc12 [Seretonine]
Monoclonal antibody 19A7; Concentration Added 1,000,000 ng/ml, 100 × observed dose / concentration added
  % Cross-Reactivity: 0.00000%
Monoclonal antibody 19A7; Concentration Added 1,000,000 ng/ml, in human urine
  Concentration Observed: ≦0.01 ng/mL

## CN(C)CCc1c[nH]c2cccc(O)c12 [Psilocyn]
Monoclonal antibody 19A7; [4]
  % Cross-Reactivity: 0.00000%
Monoclonal antibody 19A7; [5]
  Concentration Observed: ≦0.01 ng/mL

## C[C@@H](CO)NC(=O)[C@@H]1C=C2c3cccc4[nH]cc(c34)C[C@H]2N(C)C1 [Ergonovine]
Monoclonal antibody 19A7; [4]
  % Cross-Reactivity: 0.007%
Monoclonal antibody 19A7; [5]
  Concentration Observed: 0.58 ng/mL

## CC(C)C[C@H]1C(=O)N2CCC[C@H]2[C@]2(O)O[C@](NC(=O)[C@@H]3C=C4c5cccc6[nH]cc(c56)C[C@H]4N(C)C3)(C(C)C)C(=O)N12 [Alpha Ergotryptine]
Monoclonal antibody 19A7; [6]
  % Cross-Reactivity: 0.00000%
Monoclonal antibody 19A7; [7]
  Concentration Observed: 0.25 ng/mL

## N[C@@H](Cc1cc(I)c(Oc2cc(I)c(O)c(I)c2)c(I)c1)C(=O)O [Levothyroxine (T4), Levothyroxine]
Monoclonal antibody 19A7; [8]
  % Cross-Reactivity: <0.0001%
Monoclonal antibody 19A7; [9]
  Concentration Observed: 0.0 ng/mL

## CC(C)Cc1ccc(C(C)C(=O)O)cc1 (stereo not shown) [Ibuprofen]
Monoclonal antibody 19A7; [6]
  % Cross-Reactivity: <0.00001%
Monoclonal antibody 19A7; [7]
  Concentration Observed: 0.0 ng/mL

## CCCCCc1cc(O)c2c(c1)OC(C)(C)[C@@H]1CCC(C(=O)O)=C[C@@H]21 [11-nor-Δ^9-THC-COOH]
Monoclonal antibody 19A7; [4]
  % Cross-Reactivity: <0.0001%
Monoclonal antibody 19A7; [5]
  Concentration Observed: 0.0 ng/mL

## CN1C[C@H](C(=O)N[C@]2(C)O[C@@]3(O)[C@@H]4CCCN4C(=O)[C@H](Cc4ccccc4)N3C2=O)C[C@@H]2c3cccc4[nH]cc(c34)C[C@H]21 [Dihydroergotaimine]
Monoclonal antibody 19A7; Concentration Added 125,000 ng/ml, 100 × observed dose / concentration added
  % Cross-Reactivity: 0.00005%
Monoclonal antibody 19A7; Concentration Added 125,000 ng/ml, in human urine
  Concentration Observed: ≦0.01 ng/mL

## CCN(CC)C(=O)[C@H]1C=C2c3cccc4[nH]cc(c34)C[C@H]2N(C)C1 [Iso LSD]
Monoclonal antibody 19A7; Concentration Added 2,500 ng/ml, 100 × observed dose / concentration added
  % Cross-Reactivity: 0.04%
Monoclonal antibody 19A7; Concentration Added 2,500 ng/ml, in human urine
  Concentration Observed: 0.93 ng/mL

## CCCN(C)C(=O)[C@@H]1C=C2c3cccc4[nH]cc(c34)C[C@H]2N(C)C1 [d-LAMPA, Lysergic acid methyl-propyl amide]
Monoclonal antibody 19A7; Concentration Added 0.5 ng/ml, 100 × observed dose / concentration added
  % Cross-Reactivity: 58.7%
Monoclonal antibody 19A7; Concentration Added 0.5 ng/ml, in human urine
  Concentration Observed: 0.29 ng/mL

## CN[C@@H](C)Cc1ccccc1 [Methamphetamine]
Monoclonal antibody 19A7; Concentration Added 200000 ng/mL, 100 × observed dose / concentration added
  % Cross-Reactivity: 0.00019%
Monoclonal antibody 19A7; Concentration Added 200000 ng/mL, in human urine
  Concentration Observed: 0.45 ng/mL

## N[C@@H](Cc1c[nH]c2ccccc12)C(=O)O [Tryptophan]
Monoclonal antibody 19A7; [10]
  % Cross-Reactivity: 0.00000%
Monoclonal antibody 19A7; [11]
  Concentration Observed: ≦0.01 ng/mL

## CN1C[C@H](C(=O)O)C=C2c3cccc4[nH]cc(c34)C[C@H]21 [Lysergic Acid]
Monoclonal antibody 19A7
  % Cross-Reactivity: 0.00000%
  Concentration Observed: ≦0.01 ng/mL

## CCOC(=O)[C@H](CCc1ccccc1)N[C@@H](C)C(=O)N1CCC[C@H]1C(=O)O [Enalapril]
Monoclonal antibody 19A7; [6]
  % Cross-Reactivity: <0.00001%
Monoclonal antibody 19A7; [7]
  Concentration Observed: 0.0 ng/mL

## CN1[C@H]2CC[C@@H]1[C@@H](C(=O)O)[C@@H](OC(=O)c1ccccc1)C2 [Benzoylecgonine]
Monoclonal antibody 19A7; [6]
  % Cross-Reactivity: <0.00001%
Monoclonal antibody 19A7; [7]
  Concentration Observed: 0.0 ng/mL

## C[C@H]1O[C@@H](O[C@H]2[C@@H](O)C[C@H](O[C@H]3[C@@H](O)C[C@H](O[C@H]4CC[C@@]5(C)[C@H](CC[C@@H]6[C@@H]5C[C@@H](O)[C@]5(C)[C@@H](C7=CC(=O)OC7)CC[C@]65O)C4)O[C@@H]3C)O[C@@H]2C)C[C@H](O)[C@@H]1O [Digoxin]
Monoclonal antibody 19A7; [10]
  % Cross-Reactivity: <0.00001%
Monoclonal antibody 19A7; [11]
  Concentration Observed: 0.0 ng/mL

## CCN(CC)C(=O)[C@@H]1C=C2c3cccc4c3C(O)(C[C@H]2N(C)C1)C(=O)N4 (stereo partly shown) [LSD Metabolite]
[1]; CEDIA versus Abuscreen RIA
  recognition of the metabolite by reagents of the invention relative to the Abuscreen assay: about 2.5 fold
[1]; CEDIA versus DPC RIA
  recognition of the metabolite by reagents of the invention relative to the DPC assay: about 10 fold
[1]; metabolite sample diluted 1:3
  LSD ng/ml CEDIA: 0.50 ng/mL
[1]; [12]
  LSD ng/ml CEDIA: 1.32 ng/mL
[2]; metabolite sample diluted 1:3
  LSD ng/ml DPC RIA: 0.03 ng/mL
[2]; [12]
  LSD ng/ml DPC RIA: 0.14 ng/mL
[3]; metabolite sample diluted 1:3
  LSD ng/ml Abuscreen RIA: 0.23 ng/mL
[3]; [12]
  LSD ng/ml Abuscreen RIA: 0.62 ng/mL

## CN1C(=O)CN=C(c2ccccc2)c2cc(Cl)ccc21 [Diazepam]
Monoclonal antibody 19A7
  % Cross-Reactivity: <0.00001%
  Concentration Observed: 0.0 ng/mL

## CNCCC(Oc1ccc(C(F)(F)F)cc1)c1ccccc1 (stereo not shown) [Fluoxetine]
Monoclonal antibody 19A7; Concentration Added 400000 ng/mL, 100 × observed dose / concentration added
  % Cross-Reactivity: 0.00012%
Monoclonal antibody 19A7; Concentration Added 400000 ng/mL, in human urine
  Concentration Observed: 0.48 ng/mL

## C=CCC1(C(C)CCC)C(=O)NC(=O)NC1=O (stereo not shown) [Secobarbital]
Monoclonal antibody 19A7; [6]
  % Cross-Reactivity: <0.00001%
Monoclonal antibody 19A7; [7]
  Concentration Observed: 0.0 ng/mL

## CN1[C@H]2CC[C@@H]1[C@@H](C(=O)O)[C@@H](O)C2 [Ecogonine]
Monoclonal antibody 19A7; [10]
  % Cross-Reactivity: 0.00000%
Monoclonal antibody 19A7; [11]
  Concentration Observed: ≦0.01 ng/mL

## c1ccc(C2(N3CCCCC3)CCCCC2)cc1 [Phencyclidine]
Monoclonal antibody 19A7; [6]
  % Cross-Reactivity: 0.00002%
Monoclonal antibody 19A7; [7]
  Concentration Observed: 0.11 ng/mL

## COC(=O)[C@@H]1[C@H]2CC[C@@H](C[C@@H]1O)N2C [Ecogonine Methyl Ester]
Monoclonal antibody 19A7; [10]
  % Cross-Reactivity: 0.00000%
Monoclonal antibody 19A7; [11]
  Concentration Observed: ≦0.01 ng/mL

## CC(=O)Oc1ccccc1C(=O)O [Acetylsalicylic Acid]
Monoclonal antibody 19A7; [6]
  % Cross-Reactivity: <0.00001%
Monoclonal antibody 19A7; [7]
  Concentration Observed: 0.0 ng/mL

## CC[C@@H](CO)NC(=O)[C@@H]1C=C2c3cccc4c3c(cn4C)C[C@H]2N(C)C1 [Methysergide Maleate]
Monoclonal antibody 19A7; [8]
  % Cross-Reactivity: 0.00147%
Monoclonal antibody 19A7; [9]
  Concentration Observed: 0.74 ng/mL

## CN1C[C@H](C(=O)N[C@]2(C)O[C@@]3(O)[C@@H]4CCCN4C(=O)[C@H](Cc4ccccc4)N3C2=O)C=C2c3cccc4[nH]cc(c34)C[C@H]21 [Ergotamine]
Monoclonal antibody 19A7; [10]
  % Cross-Reactivity: 0.00000%
Monoclonal antibody 19A7; [11]
  Concentration Observed: ≦0.01 ng/mL

## CN/C(=N/CCSCc1nc[nH]c1C)NC#N [Cimetidine]
Monoclonal antibody 19A7
  % Cross-Reactivity: <0.00001%
  Concentration Observed: 0.0 ng/mL

## C[C@H](CS)C(=O)N1CCC[C@H]1C(=O)O [Captopril]
Monoclonal antibody 19A7; [6]
  % Cross-Reactivity: <0.00001%
Monoclonal antibody 19A7; [7]
  Concentration Observed: 0.0 ng/mL

## CN1C[C@H](CO)C=C2c3cccc4[nH]cc(c34)C[C@H]21 [Lysergol]
Monoclonal antibody 19A7; Concentration Added 5,000 ng/ml, 100 × observed dose / concentration added
  % Cross-Reactivity: 0.00034%
Monoclonal antibody 19A7; Concentration Added 5,000 ng/ml, in human urine
  Concentration Observed: 0.01 ng/mL

## COc1ccc2c3c1O[C@H]1[C@@H](O)C=C[C@H]4[C@@H](C2)N(C)CC[C@@]341 [Codeine]
Monoclonal antibody 19A7; [6]
  % Cross-Reactivity: <0.00001%
Monoclonal antibody 19A7; [7]
  Concentration Observed: 0.0 ng/mL

## Cc1ccc(C(=O)c2ccc(CC(=O)O)n2C)cc1 [Tolmetin]
Monoclonal antibody 19A7; [6]
  % Cross-Reactivity: <0.00001%
Monoclonal antibody 19A7; [7]
  Concentration Observed: 0.0 ng/mL

## CC(N)Cc1ccccc1 (stereo not shown) [Amphetamine]
Monoclonal antibody 19A7; [6]
  % Cross-Reactivity: <0.00001%
Monoclonal antibody 19A7; [7]
  Concentration Observed: 0.0 ng/mL

## CC1(C)S[C@@H]2[C@H](NC(=O)[C@H](N)c3ccc(O)cc3)C(=O)N2[C@H]1C(=O)O [Amoxicillin]
Monoclonal antibody 19A7
  % Cross-Reactivity: <0.00001%
  Concentration Observed: 0.0 ng/mL

## CCN(CC)C(=O)[C@@H]1C=C2c3cccc4c3C(O)(C[C@H]2N(C)C1)C(=O)N4 (stereo partly shown) [2oxo-3hydroxy LSD]
Monoclonal antibody 19A7; Concentration Added 30 ng/ml, 100 × observed dose / concentration added
  % Cross-Reactivity: 1.82%
Monoclonal antibody 19A7; Concentration Added 30 ng/ml, in human urine
  Concentration Observed: 0.55 ng/mL

## CN1CC[C@]23c4c5ccc(O)c4O[C@H]2[C@@H](O)C=C[C@H]3[C@H]1C5 [Morphine]
Monoclonal antibody 19A7
  % Cross-Reactivity: <0.00001%
  Concentration Observed: 0.0 ng/mL
